Patent publication US10577363B2, “Substituted piperidine compounds” (EPIZYME, INC., priority 2014, dated 2020)

Tests used:
SMYD3 [1] = biological target: T1, SMYD3 (Homo sapiens (Human), UniProt Q9H7B4); assay: SMYD3 biochemical assay (SPA, 3H-SAM methylation of MEKK2 protein substrate); conditions: average of n = 1 to n = 50; read-out: SMYD3 Biochem IC50
Procedure, shortened: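 Enzyme: untagged full-length human SMYD3 from E. coli; substrate GST-tagged MEKK2 from insect cells. Buffer 25 mM Tris-Cl pH 8.0, 1 mM TCEP, 0.005% BSG/Tween 20. 30 min compound–enzyme preincubation at RT; 3H-SAM/MEKK2 start; stop with cold SAM (100 uM final); SPA readout in cpm.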

SMYD3 [2] = biological target: T1, SMYD3; assay: SMYD3 cell assay (Trimethyl-MEKK2 In-Cell Western in 293T/17 cells); type: cell-based; conditions: average of n = 1 to n = 50; read-out: SMYD3 Cell IC50
Procedure, shortened: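 In-Cell Western readout: methanol-fixed cells stained for trimethyl-MEKK2 and flag tag, ratio per well normalized to DMSO and background controls.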

T1 sequence (Q9H7B4 whole entry): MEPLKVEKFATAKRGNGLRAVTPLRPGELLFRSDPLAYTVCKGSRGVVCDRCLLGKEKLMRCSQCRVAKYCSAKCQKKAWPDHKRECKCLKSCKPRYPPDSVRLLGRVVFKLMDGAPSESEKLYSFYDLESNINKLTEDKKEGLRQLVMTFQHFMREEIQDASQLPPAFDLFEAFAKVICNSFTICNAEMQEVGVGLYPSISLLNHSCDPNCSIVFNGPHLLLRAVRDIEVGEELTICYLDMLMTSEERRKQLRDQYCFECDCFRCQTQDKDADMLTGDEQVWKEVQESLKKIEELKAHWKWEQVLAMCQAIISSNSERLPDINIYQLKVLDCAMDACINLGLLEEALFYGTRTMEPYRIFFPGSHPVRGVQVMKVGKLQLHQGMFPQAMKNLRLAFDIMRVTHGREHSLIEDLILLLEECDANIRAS

| SMILES | IC50 (SMYD3 [1]) | IC50 (SMYD3 [2]) |
| --- | --- | --- |
| O=C(N[C@@H]1C[C@H]2CC[C@@H](C1)N2S(=O)(=O)CC1CCCNC1)c1cc(C2CC2)on1 (stereo partly drawn) [compound 721, 5-cyclopropyl-N-((1R,3s,5S)-8-((piperidin-3-ylmethyl)sulfonyl)-8-azabicyclo[3.2.1]octan-3-yl)isoxazole-3-carboxamide] | 322 nM | 1830 nM |
| O=C(N[C@H]1C[C@H]2CC[C@@H](C1)N2S(=O)(=O)N1CCNC(c2ccccc2)C1)c1cc(C2CC2)on1 (stereo partly drawn) [compound 722, 5-cyclopropyl-N-((1R,3r,5S)-8-((3-phenylpiperazin-1-yl)sulfonyl)-8-azabicyclo[3.2.1]octan-3-yl)isoxazole-3-carboxamide] | 326 nM | 1520 nM |
| O=C(N[C@@H]1CCN(S(=O)(=O)CC2CCNCC2)[C@@H](Cc2ccccc2)C1)c1cc(C2CC2)on1 [compound 723, N-((2S,4R)-2-benzyl-1-((piperidin-4-ylmethyl)sulfonyl)piperidin-4-yl)-5-cyclopropylisoxazole-3-carboxamide] | 326 nM | 2730 nM |
| CN(C1CCNCC1)S(=O)(=O)N1[C@@H]2CC[C@H]1C[C@H](NC(=O)c1cc(C3CC3)on1)C2 [compound 724, 5-cyclopropyl-N-((1R,3s,5S)-8-(N-methyl-N-(piperidin-4-yl)sulfamoyl)-8-azabicyclo[3.2.1]octan-3-yl)isoxazole-3-carboxamide] | 333 nM | 2440 nM |
| O=C(N[C@H]1CCN(S(=O)(=O)C2CCCNC2)[C@@H](Cc2ccccc2)C1)c1cc(C2CC2)on1 (stereo partly drawn) [compound 725, N-((2S,4S)-2-benzyl-1-(piperidin-3-ylsulfonyl)piperidin-4-yl)-5-cyclopropylisoxazole-3-carboxamide] | 340 nM | 3070 nM |
| O=C(N[C@H]1C[C@H]2CC[C@@H](C1)N2S(=O)(=O)CCN1CCC(OCc2ccccc2)C1)c1cc(C2CC2)on1 (stereo partly drawn) [compound 726, N-((1R,3r,5S)-8-((2-(3-(benzyloxy)pyrrolidin-1-yl)ethyl)sulfonyl)-8-azabicyclo[3.2.1]octan-3-yl)-5-cyclopropylisoxazole-3-carboxamide] | 360 nM | 2470 nM |
| CNC/C=C/S(=O)(=O)N1CCC(NC(=O)c2cc(C3CC3)on2)CC1 [compound 727, (E)-5-cyclopropyl-N-(1-((3-(methylamino)prop-1-en-1-yl)sulfonyl)piperidin-4-yl)isoxazole-3-carboxamide] | 363 nM | 1390 nM |
| CC(C)[C@@H]1CN(S(=O)(=O)N2CC[C@H](NC(=O)c3cc(C4CC4)on3)C[C@@H]2C)CCN1C [compound 728, 5-cyclopropyl-N-((2S,4S)-1-(((R)-3-isopropyl-4-methylpiperazin-1-yl)sulfonyl)-2-methylpiperidin-4-yl)isoxazole-3-carboxamide] | 380 nM | 1370 nM |
| O=C(N[C@@H]1C[C@H]2CC[C@@H](C1)N2S(=O)(=O)C1CCCNC1)c1cc(C2CC2)on1 (stereo partly drawn) [compound 729, 5-cyclopropyl-N-((1R,3s,5S)-8-(piperidin-3-ylsulfonyl)-8-azabicyclo[3.2.1]octan-3-yl)isoxazole-3-carboxamide] | 411 nM | 2530 nM |
| Nc1cc(S(=O)(=O)N2[C@@H]3CCC[C@H]2C[C@@H](NC(=O)c2cc(C4CC4)on2)C3)ccn1 [compound 730, N-((1R,3r,5S)-9-((2-aminopyridin-4-yl)sulfonyl)-9-azabicyclo[3.3.1]nonan-3-yl)-5-cyclopropylisoxazole-3-carboxamide] | 413 nM | 1320 nM |
| C[C@H]1CN(S(=O)(=O)N2CCN(C)CC2)[C@@H](C)C[C@H]1NC(=O)c1cc(C2CC2)on1 [compound 731, 5-cyclopropyl-N-((2S,4R,5S)-2,5-dimethyl-1-((4-methylpiperazin-1-yl)sulfonyl)piperidin-4-yl)isoxazole-3-carboxamide] | 418 nM | 1330 nM |
| C[C@H]1CN(S(=O)(=O)CCN2CCCC2)[C@@H](C)C[C@H]1NC(=O)c1cc(C2CC2)on1 [compound 732, 5-cyclopropyl-N-((2S,4R,5S)-2,5-dimethyl-1-((2-(pyrrolidin-1-yl)ethyl)sulfonyl)piperidin-4-yl)isoxazole-3-carboxamide] | 431 nM | 1460 nM |
| O=C(NC1C[C@H]2CCC[C@H](C1)N2S(=O)(=O)c1ccc(Cl)cn1)c1cc(C2CC2)on1 (stereo partly drawn) [compound 733, N-((1R,5R)-9-((5-chloropyridin-2-yl)sulfonyl)-9-azabicyclo[3.3.1]nonan-3-yl)-5-cyclopropylisoxazole-3-carboxamide] | 442 nM | 1960 nM |
| NCCCNc1ncccc1S(=O)(=O)N1[C@@H]2CCC[C@H]1C[C@@H](NC(=O)c1cc(C3CC3)on1)C2 [compound 734, N-((1R,3r,5S)-9-((2-((3-aminopropyl)amino)pyridin-3-yl)sulfonyl)-9-azabicyclo[3.3.1]nonan-3-yl)-5-cyclopropylisoxazole-3-carboxamide] | 442 nM | 4170 nM |
| C[C@H]1CN(S(=O)(=O)N2CC[C@H](NC(=O)c3cc(C4CC4)on3)C[C@@H]2C)CCN1C [compound 735, 5-cyclopropyl-N-((2S,4S)-1-(((S)-3,4-dimethylpiperazin-1-yl)sulfonyl)-2-methylpiperidin-4-yl)isoxazole-3-carboxamide] | 446 nM | 1360 nM |
| C[C@H]1C[C@@H](NC(=O)c2cc(C3CC3)on2)CCN1S(=O)(=O)N1CCNC(Cc2ccccc2)C1 (stereo partly drawn) [compound 736, N-((2S,4S)-1-((3-benzylpiperazin-1-yl)sulfonyl)-2-methylpiperidin-4-yl)-5-cyclopropylisoxazole-3-carboxamide] | 452 nM | 2030 nM |
| C[C@H]1C[C@@H](NC(=O)c2cc(C3CC3)on2)CCN1S(=O)(=O)N1CCNCC1Cc1ccccc1 (stereo partly drawn) [compound 737, N-((2S,4S)-1-((2-benzylpiperazin-1-yl)sulfonyl)-2-methylpiperidin-4-yl)-5-cyclopropylisoxazole-3-carboxamide] | 469 nM | 6940 nM |
| C[C@H]1CN(S(=O)(=O)CC2CCN(CCN3CCOCC3)CC2)CC[C@H]1NC(=O)c1cc(C2CC2)on1 [compound 738, 5-cyclopropyl-N-((3S,4R)-3-methyl-1-(((1-(2-morpholinoethyl)piperidin-4-yl)methyl)sulfonyl)piperidin-4-yl)isoxazole-3-carboxamide] | 476 nM | 2820 nM |
| O=C(N[C@H]1C[C@H]2CC[C@@H](C1)N2S(=O)(=O)CCc1ccncc1)c1cc(C2CC2)on1 [compound 739, 5-cyclopropyl-N-((1R,3r,5S)-8-((2-(pyridin-4-yl)ethyl)sulfonyl)-8-azabicyclo[3.2.1]octan-3-yl)isoxazole-3-carboxamide] | 491 nM | 2400 nM |
| CN(CCN1CCOCC1)CCS(=O)(=O)N1[C@@H]2CC[C@H]1C[C@@H](NC(=O)c1cc(C3CC3)on1)C2 [compound 742, 5-cyclopropyl-N-((1R,3r,5S)-8-((2-(methyl(2-morpholinoethyl)amino)ethyl)sulfonyl)-8-azabicyclo[3.2.1]octan-3-yl)isoxazole-3-carboxamide] | 513 nM | 899 nM |
| O=C(N[C@H]1C[C@H]2CC[C@@H](C1)N2S(=O)(=O)CCNCCN1CCOCC1)c1cc(C2CC2)on1 [compound 743, 5-cyclopropyl-N-((1R,3r,5S)-8-((2-((2-morpholinoethyl)amino)ethyl)sulfonyl)-8-azabicyclo[3.2.1]octan-3-yl)isoxazole-3-carboxamide] | 514 nM | 1820 nM |
| O=C(N[C@@H]1CCN(S(=O)(=O)CC2CCNCC2)[C@H](Cc2ccccc2)C1)c1cc(C2CC2)on1 [compound 744, N-((2R,4R)-2-benzyl-1-((piperidin-4-ylmethyl)sulfonyl)piperidin-4-yl)-5-cyclopropylisoxazole-3-carboxamide] | 518 nM | 2350 nM |
| O=C(N[C@H]1CCN(S(=O)(=O)CC2CCCN2)[C@@H](Cc2ccccc2)C1)c1cc(C2CC2)on1 (stereo partly drawn) [compound 745, N-((2S,4S)-2-benzyl-1-((pyrrolidin-2-ylmethyl)sulfonyl)piperidin-4-yl)-5-cyclopropylisoxazole-3-carboxamide] | 533 nM | 2640 nM |
| C[C@@H]1CN(S(=O)(=O)CCN2CCCC2)[C@H](C)C[C@@H]1NC(=O)c1cc(C2CC2)on1 [compound 746, 5-cyclopropyl-N-((2R,4S,5R)-2,5-dimethyl-1-((2-(pyrrolidin-1-yl)ethyl)sulfonyl)piperidin-4-yl)isoxazole-3-carboxamide] | 541 nM | 1660 nM |
| C[C@@H]1C[C@H](NC(=O)c2cc(C3CC3)on2)CCN1C(=O)c1ccc2c(c1)ncn2C [compound 747, 5-cyclopropyl-N-((2R,4R)-2-methyl-1-(1-methyl-1H-benzo[d]imidazole-5-carbonyl)piperidin-4-yl)isoxazole-3-carboxamide] | 583 nM | 2410 nM |
| CN(CCc1ccccc1)CCS(=O)(=O)N1[C@@H]2CC[C@H]1C[C@@H](NC(=O)c1cc(C3CC3)on1)C2 [compound 748, 5-cyclopropyl-N-((1R,3r,5S)-8-((2-(methyl(phenethyl)amino)ethyl)sulfonyl)-8-azabicyclo[3.2.1]octan-3-yl)isoxazole-3-carboxamide] | 584 nM | 3180 nM |
| O=C(N[C@H]1C[C@H]2CC[C@@H](C1)N2S(=O)(=O)N1CCNC(Cc2ccccc2)C1)c1cc(C2CC2)on1 (stereo partly drawn) [compound 749, N-((1R,3r,5S)-8-((3-benzylpiperazin-1-yl)sulfonyl)-8-azabicyclo[3.2.1]octan-3-yl)-5-cyclopropylisoxazole-3-carboxamide] | 590 nM | 3560 nM |
